ChEMBL document CHEMBL1201862, “PubChem BioAssay data set” (2004)
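Results reflect a 48-hour exposure of cells in 96-well plates to compound at five concentrations. GI50: concentration for 50% inhibition of growth.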 Active and inactive are the calls of the source. No stated cut-off is given here; in the data, active = GI50 up to about 1.1 µM and inactive = higher.

Assays:
Test in all cases: growth of human tumour cells (NCI), 48 h
OVCAR-8 = system: OVCAR-8
HL-60 = system: HL-60
HOP-62 = system: HOP-62
SNB-19 = system: SNB-19
SW-620 = system: SW-620
K562 = system: K562
UACC-62 = system: UACC-62
COLO 205 = system: COLO 205
SNB-75 = system: SNB-75
SR = system: SR
HCT-116 = system: HCT-116
NCI-H23 = system: NCI-H23
A549 = system: A549
UACC-257 = system: UACC-257
SF-539 = system: SF-539
SK-OV-3 = system: SK-OV-3

Row | Structure (SMILES) | GI50 (OVCAR-8) | GI50 (HL-60) | GI50 (HOP-62) | GI50 (SNB-19) | GI50 (SW-620) | GI50 (K562) | GI50 (UACC-62) | GI50 (COLO 205) | GI50 (SNB-75) | GI50 (SR) | GI50 (HCT-116) | GI50 (NCI-H23) | GI50 (A549) | GI50 (UACC-257) | GI50 (SF-539) | GI50 (SK-OV-3)
1 | COc1cc(C(C)c2cc3c(cc2OCCN)OCO3)cc(OC)c1OC (configuration not stated) | > 100 µM (inactive) | 20 µM (inactive) | > 100 µM (inactive) | 54.8 µM (inactive) | > 100 µM (inactive) | > 100 µM (inactive) | 35.5 µM (inactive) | > 100 µM (inactive) | 18.5 µM (inactive) | 40.4 µM (inactive) | > 100 µM (inactive) | 31.8 µM (inactive) | > 100 µM (inactive) | 6.7 µM (inactive) | > 100 µM (inactive) | –
2 | Cn1c(C2CCCc3c2c2ccccc2n3C)cc2ccccc21 (configuration not stated) | > 318 µM (inactive) | 65.5 µM (inactive) | 286 µM (inactive) | > 318 µM (inactive) | 78 µM (inactive) | 74 µM (inactive) | 35.8 µM (inactive) | 140 µM (inactive) | – | 71.9 µM (inactive) | 142 µM (inactive) | 40.2 µM (inactive) | 128 µM (inactive) | 90.2 µM (inactive) | > 318 µM (inactive) | 100 µM (inactive)
3 | CCCCCCCCCC[C@@H](O)[C@@H]1CC[C@H]([C@H]2CC[C@@H]([C@@H](O)CCCCCCCCCC[C@H]3CC(CC(C)=O)C(=O)O3)O2)O1 (some centres not stated) | 8.47 µM (inactive) | < 0.01 µM (active) | 15.1 µM (inactive) | 10.4 µM (inactive) | 13.5 µM (inactive) | < 0.01 µM (active) | 10.7 µM (inactive) | 13.4 µM (inactive) | 12 µM (inactive) | – | 1.18 µM (inactive) | < 0.01 µM (active) | 8.77 µM (inactive) | 0.955 µM (active) | 10.8 µM (inactive) | 17.3 µM (inactive)
4 | N=C(N)Cn1cnc2ccccc21 | > 100 µM (inactive) | > 100 µM (inactive) | > 100 µM (inactive) | > 100 µM (inactive) | > 100 µM (inactive) | > 100 µM (inactive) | > 100 µM (inactive) | > 100 µM (inactive) | > 100 µM (inactive) | – | – | > 100 µM (inactive) | > 100 µM (inactive) | > 100 µM (inactive) | > 100 µM (inactive) | > 100 µM (inactive)
5 | Cc1nnc2n1N=C(CC(=O)c1ccc(O)cc1O)CN2N | – | 75.3 µM (inactive) | > 100 µM (inactive) | > 100 µM (inactive) | 14.9 µM (inactive) | > 100 µM (inactive) | > 100 µM (inactive) | 19.2 µM (inactive) | – | – | 55.7 µM (inactive) | > 100 µM (inactive) | > 100 µM (inactive) | > 100 µM (inactive) | > 100 µM (inactive) | > 100 µM (inactive)
6 | O=C(O)C1CCC(=O)N1C(=O)C(Cl)c1ccccc1 (configuration not stated) | > 100 µM (inactive) | > 100 µM (inactive) | > 100 µM (inactive) | > 100 µM (inactive) | > 100 µM (inactive) | > 100 µM (inactive) | > 100 µM (inactive) | > 100 µM (inactive) | > 100 µM (inactive) | – | > 100 µM (inactive) | > 100 µM (inactive) | > 100 µM (inactive) | > 100 µM (inactive) | – | > 100 µM (inactive)
7 | COc1ccc(C(=O)Nc2ccccc2C#N)cc1 | > 100 µM (inactive) | 54.6 µM (inactive) | > 100 µM (inactive) | > 100 µM (inactive) | > 100 µM (inactive) | > 100 µM (inactive) | > 100 µM (inactive) | > 100 µM (inactive) | 51.1 µM (inactive) | > 100 µM (inactive) | > 100 µM (inactive) | > 100 µM (inactive) | > 100 µM (inactive) | > 100 µM (inactive) | > 100 µM (inactive) | –
8 | N=c1c2ccccc2sc2nc3ccccc3n12 | > 100 µM (inactive) | > 100 µM (inactive) | > 100 µM (inactive) | > 100 µM (inactive) | > 100 µM (inactive) | > 100 µM (inactive) | > 100 µM (inactive) | > 100 µM (inactive) | – | > 100 µM (inactive) | – | > 100 µM (inactive) | > 100 µM (inactive) | > 100 µM (inactive) | > 100 µM (inactive) | 72.3 µM (inactive)
9 | COc1cc2ccnc([C@@H](OC(=O)c3ccccc3)c3ccc(OC)c(OC)c3OC)c2cc1OC | 51.9 µM (inactive) | 41.8 µM (inactive) | – | 53.1 µM (inactive) | 36.5 µM (inactive) | 26.7 µM (inactive) | 56.4 µM (inactive) | 48.5 µM (inactive) | 21.5 µM (inactive) | – | 33.9 µM (inactive) | 40.6 µM (inactive) | 47.1 µM (inactive) | > 100 µM (inactive) | 47.5 µM (inactive) | > 100 µM (inactive)
10 | COc1ccc(C2[C@@H](Cl)C(=O)N2c2ccc(OC)cc2)cc1 (some centres not stated) | 46.2 µM (inactive) | 20.4 µM (inactive) | – | 45.5 µM (inactive) | > 100 µM (inactive) | 19.5 µM (inactive) | 33.6 µM (inactive) | > 100 µM (inactive) | 15.1 µM (inactive) | 40.5 µM (inactive) | 18.6 µM (inactive) | > 100 µM (inactive) | > 100 µM (inactive) | 46 µM (inactive) | 19.8 µM (inactive) | 23.1 µM (inactive)
11 | NC1CCCCC1.O=C(O)C(CP(=O)(O)O)=C(Cl)Cl | > 100 µM (inactive) | > 100 µM (inactive) | > 100 µM (inactive) | > 100 µM (inactive) | > 100 µM (inactive) | – | > 100 µM (inactive) | > 100 µM (inactive) | > 100 µM (inactive) | > 100 µM (inactive) | > 100 µM (inactive) | > 100 µM (inactive) | > 100 µM (inactive) | > 100 µM (inactive) | > 100 µM (inactive) | > 100 µM (inactive)
12 | Nc1ccc2n[se]nc2c1 | > 100 µM (inactive) | 42.4 µM (inactive) | > 100 µM (inactive) | > 100 µM (inactive) | > 100 µM (inactive) | > 100 µM (inactive) | > 100 µM (inactive) | – | > 100 µM (inactive) | > 100 µM (inactive) | > 100 µM (inactive) | > 100 µM (inactive) | > 100 µM (inactive) | > 100 µM (inactive) | > 100 µM (inactive) | > 100 µM (inactive)
13 | CC(SC(=S)Nc1cccc(F)c1)C(=O)O (configuration not stated) | 25.5 µM (inactive) | 13.3 µM (inactive) | 18.3 µM (inactive) | 29.4 µM (inactive) | 33.3 µM (inactive) | 15.6 µM (inactive) | 19 µM (inactive) | > 10 µM (inactive) | – | 13.8 µM (inactive) | 19.2 µM (inactive) | 21 µM (inactive) | 31.7 µM (inactive) | 16.6 µM (inactive) | 18.3 µM (inactive) | –
14 | Cc1c2c(ccc3ccccc32)c[n+]2ccccc12 | 12.4 µM (inactive) | 28.4 µM (inactive) | 3.23 µM (inactive) | 2.07 µM (inactive) | 5.5 µM (inactive) | 11.6 µM (inactive) | – | 13 µM (inactive) | 4.21 µM (inactive) | 4.16 µM (inactive) | 21.8 µM (inactive) | 4.15 µM (inactive) | 1.44 µM (inactive) | 10.2 µM (inactive) | 13.9 µM (inactive) | –
